In assay [1] the test system is Panc-1 cells. Put plainly: RealTime-Glo Annexin V Apoptosis and Necrosis Assay. In kind it is cell-based, human. To be noted: serial dilutions, 10 minutes to 6 hours. On the procedure: To validate the involvement of apoptosis in BCN057 induced cell death, the Panc1 cells with/without BCN057 were subjected to Anexin V staining. Anexin V staining was performed up to 6 hours and measured as a function of dose response of BCN057. […] FIG. 2B is a graph of Annexin V Apoptosis and Necrosis Assay in Panc-1 cells. Panc-1 cells were exposed to serial dilutions of BCN057 in the presence or absence of the RealTime-Glo™ Annexin V Apoptosis and Necrosis Assay Reagent. The plate was incubated at 37° C./5% CO2 and luminescence (Annexin V binding) was measured over a period of six hours. […] Apoptosis appeared to increase with increasing concentrations of BCN057.

Assay [2] concerns Bax, BCl-2, Akt-1 and Caspase-3 in Panc-1 cells. Description: qPCR of pro apoptosis and anti-apoptosis markers. In kind it is cell-based, human. To be noted: 1-hour post treatment. The text has this: FIG. 2C is a histogram of the results of qPCR analysis of pro apoptosis and anti-apoptosis markers in Panc-1 cells.
The target of assay [3] is T1, GSK3b (Homo sapiens, UniProt P49841).
T1 construct: endogenous in cells; host or cells: Panc-1
T1 sequence (P49841 whole entry): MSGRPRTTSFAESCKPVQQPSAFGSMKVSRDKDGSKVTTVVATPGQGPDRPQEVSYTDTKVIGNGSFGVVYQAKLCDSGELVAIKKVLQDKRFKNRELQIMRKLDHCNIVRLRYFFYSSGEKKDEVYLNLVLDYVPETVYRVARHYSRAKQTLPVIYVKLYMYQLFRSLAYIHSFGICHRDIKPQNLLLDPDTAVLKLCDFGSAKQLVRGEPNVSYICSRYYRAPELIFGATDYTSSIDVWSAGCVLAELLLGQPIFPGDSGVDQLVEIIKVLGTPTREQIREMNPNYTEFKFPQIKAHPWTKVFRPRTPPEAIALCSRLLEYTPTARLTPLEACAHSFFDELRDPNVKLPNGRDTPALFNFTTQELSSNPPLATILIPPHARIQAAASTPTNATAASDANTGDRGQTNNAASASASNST
Put plainly: Western blot of GSK3b phosphorylation at S-9 in Panc1 cells. In kind it is cell-based. To be noted: 10 μM BCN057, over time. On the procedure: (§1) Western Blot: Cells were harvested and lysed in cell lysis buffer on ice for 15 minutes and the lysate was centrifuged at 13,000 rpm at 4° C. for 10 minutes. The supernatant was transferred into a new tube for BCA protein quantification assay (Thermo Fisher Scientific) and the samples were normalized. 3× loading buffer (Cell Signaling) was added the protein sample and boiled for 5 minutes. The samples were used for SDS-PAGE analysis and transferred to nitrocellulose membrane. The membrane was blocked with 5% BSA at room temperature for 1 hour and incubated with primary antibody at 4° C. overnight. The membrane was washed with 1×TBST 5 minutes for 3 times and incubated with horseradish peroxidase-conjugated secondary antibody for 1 hour at room temperature. The protein was visualized by SuperSignal West Pico Stable Peroxide Solution (Thermo Fisher Scientific). The blot was visualized by chemiluminescence using a BioRad Versadoc Imaging System.
(§2) To investigate the role BCN057 may have in the restoration of apoptosis in this cell line, the GSK3b-c-Jun relationship was assessed as it has been directly linked to apoptosis. Others have reported a link with GSK3b and c-Jun and apoptosis along with the fact that […] is over expressed in the oncogenic KRAS phenotype.

Assay [4] deals with T2, GSK3b in non-transformed cell types such as HEK298 (Homo sapiens, UniProt P49841).
T2 construct: endogenous in cells; host or cells: HEK298 (so in the source)
T2 sequence (P49841 whole entry): as above
Put plainly: GSK3b inhibition in non-transformed cells. The assay is classed as cell-based. How it is done:
as §2

The subject of assay [5] is c-Jun. Put plainly: Western blot of Phospho-c-Jun (T-91/93) in Panc-1 cells. The assay is classed as cell-based, human. How it is done: as §1, with “System. Phosphorylation at T 91/93 in c-Jun was measured as a function of total c-Jun. Significant phosphorylation at T 91/93 was observed which has been reported to be associated with the activation of c-Jun's pro-apoptotic activity. […] FIG. 4A is a western blot of Phospho-c-Jun (T-91/93). […] Phosphorylation of c-Jun at T-91/93 is known to induce apoptosis. Total c-Jun protein level was unchanged. […]” for “System.”

The subject of assay [6] is PDL-1 expression on Panc-1 cells. Put plainly: Western blot of PDL-1 on Panc-1 cells co-cultured with T-lymphocytes. In kind it is cell-based, human. To be noted: co-culture, 2.5, 5, 7.5 and 10 hrs. On the procedure:
Cell lines and cell culture: Panc-1 cells were cultured in DMEM medium supplemented with 10% Fetal Bovine Serum and maintained at 37° C.5% CO2. Human Peripheral Blood Pan-T Cells were cultured in serum free T cells expansion media with 10 ng/ml of rhIL-2, T-cell activator and expanded as per the manufacturer instructions. Panc-1 cells and T-Cells were grown and expanded separately in T75 flasks. For co-culture experiments with Panc-1 cell, 2.5 million T-cells per well were plated in the well using a 6 well plate. 2.5 million Panc-1 Cells were plated in the thinsert which was placed into the well of the 6 well plate in order to have the cells physically separated but share media. The cells were incubated for 24 hours at 37° C., 5% CO2. At 24 hours the media was replaced with media containing vehicle, or 10 uM BCN057 and were incubated for the following timepoints: 1 hr, 6 hr, 12 hr, 24 hrs. The Panc-1 cells were removed by gently scraping the cells from the thinsert.
Western Blot: Cells were harvested and lysed in cell lysis buffer on ice for 15 minutes and the lysate was centrifuged at 13,000 rpm at 4° C. for 10 minutes. The supernatant was transferred into a new tube for BCA protein quantification assay (Thermo Fisher Scientific) and the samples were normalized. 3× loading buffer (Cell Signaling) was added the protein sample and boiled for 5 minutes. […]

Assay [7] concerns irradiated mouse T-lymphocytes. Description: In vitro viability assay on irradiated T-lymphocytes. In kind it is cell-based. To be noted: T-lymphocyte. How it is done:
FIG. 7A is a western blot showing PD-1 expression on human T-lymphocytes co-cultured with Panc-1 cells with no drug (vehicle) or 1, 6 and 12 hours with BCN057. FIG. 7B is a graph showing that the inhibition of GSK3b induces survival of Lymphocytes when exposed to radiation.
FIG. 8 is western blot showing PDL-1 expression (red arrow) on Panc-1 cells co cultured with human T-lymphocytes with no drug (vehicle) or 2.5, 5, 7.5 and 10 hrs. with BCN057. […] In a separate study using mouse T-lymphocytes, 2Gy radiation was used to induce apoptosis with increasing amounts of BCN057.

Turning to `COc1ccc2cc(-c3nc4ccc(C)cn4c3NCc3ccco3)c(=O)[nH]c2c1` [BCN057, 3-[(Furan-2-ylmethyl)-amino]-2-(7-methoxy-2-oxo-1,2-dihydro-quinolin-3-yl)-6-methyl-imidazo[1,2-a]pyridin-1-ium], in assay [1], the “Apoptosis (Annexin V binding, luminescence)” value was “Dose and time dependent increase in apoptosis”. In assay [2], the Akt-1 expression entry was “did not affect”, the Bax gene expression result is given as “induces expression”, the Bcl2 gene expression entry is recorded as “inhibited” and the Caspase-3 expression result is recorded as “did not affect”. For the same molecule, the “GSK3b phosphorylation at S-9” value in assay [3] is “rapid induction of phosphorylation at S-9”. In assay [4], the GSK3b inhibition entry is listed as “inhibition was noted”. The “c-Jun phosphorylation at T-91/93” value in assay [5] (KRAS mutant Panc-1 cells, within 20 minutes after drug treatment) was “significantly increases JNK dependent phosphorylation”. For the same molecule, in assay [5] (Panc-1 cells), the “Total c-Jun protein level” value was “unchanged”. In addition, in assay [6], the “PDL-1 expression on Panc-1 cells” value is “not appreciably changed”. In assay [7] (light or radiation study, viability of irradiated mouse T-lymphocytes), the half-maximal effective concentration (EC50) is 5.34 µM. In assay [7] (preservation of mouse T-lymphocytes, 2Gy radiation), this molecule gave an EC50 of 5.34 µM.
